Experimental data published in patent US10752587B2, “Homobispiperidinyl derivatives as liver X receptor beta agonists, compositions and their use” (Merck Sharp & Dohme Corp., priority 2015, dated 2020).
Read-outs that look alike come from different tables or passages of the source.

Tests used:
[1] = molecular target: T1, glutathione-S-transferase (GST) tagged LXRbeta LBD (ligand binding domain) (Homo sapiens, UniProt P55055); assay: LanthaScreen TR-FRET Liver X Receptor Coactivator Assay, co-activator recruitment to LXRbeta LBD; type: biochemical
T1 construct: purchased Invitrogen pv4658.pps
T1 sequence (P55055 222-460 limits assumed): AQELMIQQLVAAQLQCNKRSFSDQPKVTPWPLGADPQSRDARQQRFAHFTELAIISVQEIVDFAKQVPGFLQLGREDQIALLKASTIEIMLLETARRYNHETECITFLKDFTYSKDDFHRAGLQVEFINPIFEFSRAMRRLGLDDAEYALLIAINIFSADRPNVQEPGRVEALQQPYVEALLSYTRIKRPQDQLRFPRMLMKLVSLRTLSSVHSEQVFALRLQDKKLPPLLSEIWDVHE
In short: (§1)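 Readout is time-resolved FRET between a terbium anti-GST antibody bound to the LBD and a fluorescein-tagged coactivator peptide recruited on ligand binding. Plates were incubated at room temperature before reading. Potency (IP) and efficacy (Emax) are referenced to T0901317.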

[2] = molecular target: T2, glutathione-S-transferase (GST) tagged LXRalpha LBD (ligand binding domain) (Homo sapiens, UniProt Q13133); assay: LanthaScreen TR-FRET Liver X Receptor Coactivator Assay, co-activator recruitment to LXRalpha LBD; type: biochemical
T2 construct: purchased Invitrogen pv4655
T2 sequence (Q13133 209-447 limits assumed): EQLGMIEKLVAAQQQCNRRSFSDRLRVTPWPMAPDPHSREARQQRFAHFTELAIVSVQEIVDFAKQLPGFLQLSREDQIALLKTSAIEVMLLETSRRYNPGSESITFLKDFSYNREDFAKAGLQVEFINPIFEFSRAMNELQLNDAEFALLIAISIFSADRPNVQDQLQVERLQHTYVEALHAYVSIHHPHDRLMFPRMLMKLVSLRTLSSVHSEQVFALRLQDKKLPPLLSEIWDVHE
In short: as §1

[3] = efficacy at max dose, in relation to reference dual agonist T0901317, read-out: LXR beta Activity @ max dose (%)
[4] = potency (Inflection Point, IP), co-activator recruitment to LXRbeta LBD, in relation to T0901317, read-out: LXR beta IP
[5] = efficacy at max dose, in relation to reference dual agonist T0901317, read-out: LXR alpha Activity @ max dose (%)
[6] = potency (Inflection Point, IP), co-activator recruitment to LXRalpha LBD, in relation to T0901317, read-out: LXR alpha IP
[7] = potency (Inflection Point, IP), co-activator recruitment to LXRalpha LBD, in relation to T0901317
[8] = co-activator recruitment to GST-LXRbeta LBD, TR-FRET, read-out: LXR beta IP (Inflection Point, potency)
[9] = co-activator recruitment to GST-LXRalpha LBD, TR-FRET, read-out: LXR alpha IP (Inflection Point, potency)
[10] = efficacy in relation to reference dual agonist T0901317, read-out: LXR beta Activity @ max dose
[11] = efficacy in relation to reference dual agonist T0901317, read-out: LXR alpha Activity @ max dose

Row | SMILES | Emax [1, 3] [%] | EC50 [1, 4] [nM] | Emax [2, 5] [%] | EC50 [2, 6] [nM] | LXR alpha IP (nM) [2, 7] | further results
1 | O=C(c1ccc(N2CCC(CC3CCN(C(=O)[C@](O)(c4ccccc4)C(F)(F)F)CC3)CC2)cc1Cl)N1CC[C@@H](CO)C1 [Example 4-4, (2R)-3-(4-{[1-(3-chloro-4-{[(3R)-3-(hydroxymethyl)pyrrolidin-1-yl]carbonyl}phenyl)piperidin-4-yl]methyl}piperidin-1-yl)-1,1,1-trifluoro-3-oxo-2-phenylpropan-2-ol] | 56 | 179 | 24 | 459 | – | –
2 | O=C(c1ccc(N2CCC(CC3CCN(C(=O)[C@](O)(c4ccccc4)C(F)(F)F)CC3)CC2)cc1Cl)N1[C@H]2CC[C@@H]1CC2 [Example 4-21, (2R)-3-{4-[(1-{4-[(1s,4s)-7-aza-bicyclo[2.2.1]hept-7-ylcarbonyl]-3-chlorophenyl}piperidin-4-yl)methyl]piperidin-1-yl}-1,1,1-trifluoro-3-oxo-2-phenylpropan-2-ol] | 63 | 74 | 25 | 457 | – | –
3 | COc1cccc([C@@](O)(C(=O)N2CCC(CC3CCN(c4ccc(C(N)=O)c(Cl)c4)CC3)CC2)C(F)(F)F)c1 [Example 12-4, 2-chloro-4-[4-({1-[(2R)-3,3,3-trifluoro-2-hydroxy-2-(3-methoxyphenyl)-propanoyl]piperidin-4-yl}methyl)piperidin-1-yl]benzamide] | 55 | 5 | 13 | – | NO IP | –
4 | CN(C)C(=O)c1ccc(N2CCC(OC3CCN(C(=O)[C@](O)(c4ccccc4)C(F)(F)F)CC3)CC2)cc1Cl [Example 2-11, 2-chloro-N,N-dimethyl-4-[4-({1-[(2R)-3,3,3-trifluoro-2-hydroxy-2-phenylpropanoyl]piperidin-4-yl}oxy)piperidin-1-yl]benzamide] | 83 | – | – | 1110 | – | LXR alpha Activity @ max dose (%) ([2]; efficacy at max dose, in relation to reference dual agonist T0901317): 33%
5 | CNC(=O)c1ccc(N2CCC(CC3CCN(C(=O)C(O)(c4cc(F)cc(F)c4)C(F)(F)F)CC3)CC2)nc1Cl (centres unmarked) [Example 7-133, 2-chloro-6-[4-({1-[2-(3,5-difluorophenyl)-3,3,3-trifluoro-2-hydroxypropanoyl]piperidin-4-yl}methyl)piperidin-1-yl]-N-methylpyridine-3-carboxamide] | 123 | 6 | 66 | 83 | – | –
6 | NC(=O)c1ccc(N2CCC(CC3CCN(C(=O)[C@](O)(c4cccc(Cl)c4)C(F)(F)F)CC3)CC2)cc1Cl [Example 12-5, 2-chloro-4-[4-({1-[(2R)-2-(3-chlorophenyl)-3,3,3-trifluoro-2-hydroxypropanoyl]-piperidin-4-yl}-methyl)piperidin-1-yl]benzamide] | 76 | 4 | 38 | 32 | – | –
7 | CN(C)C(=O)c1ccc(N2CCC(CC3CCN(C(=O)C(O)(c4ccc(Cl)cc4)C(F)(F)F)CC3)CC2)cc1Cl (centres unmarked) [Example 2-15, 2-chloro-4-[4-({1-[2-(4-chlorophenyl)-3,3,3-trifluoro-2-hydroxy-propanoyl]piperidin-4-yl}methyl)piperidin-1-yl]-N,N-dimethyl-benzamide] | 26 | 298 | 0 | – | NO IP | –
8 | CN(C)C(=O)c1ccc(N2CCC(CC3(C)CCN(C(=O)[C@](O)(c4cc(Cl)cc(Cl)c4)C(F)(F)F)CC3)CC2)cc1Cl [Example 2-53, 2-chloro-4-[4-({1-[(2R)-2-(3,5-dichloro-phenyl)-3,3,3-trifluoro-2-hydroxy-propanoyl]-4-methylpiperidin-4-yl}methyl)piperidin-1-yl]-N,N-dimethyl-benzamide] | 50 | 5 | 0 | – | NO IP | –
9 | CN(C)C(=O)c1ccc(N2[C@@H]3CC[C@H]2CN(CC2CCN(C(=O)[C@](O)(c4ccccc4)C(F)(F)F)CC2)C3)cc1Cl [Example 6-3, 2-chloro-N,N-dimethyl-4-[(1R,5S)-3-({1-[(2R)-3,3,3-trifluoro-2-hydroxy-2-phenylpropanoyl]piperidin-4-yl}methyl)-3,8-diazabicyclo[3.2.1]oct-8-yl]benzamide] | 37 | 2550 | 18 | – | NO IP | –
10 | CN(C)C(=O)c1ccc(N2CCC(CC3CCN(C(=O)[C@](O)(c4cc(F)cc(Cl)c4)C(F)(F)F)CC3)CC2)nc1Cl [Example 7-112, 2-chloro-6-[4-({1-[(2R)-2-(3-chloro-5-fluorophenyl)-3,3,3-trifluoro-2-hydroxypropanoyl]piperidin-4-yl}methyl)piperidin-1-yl]-N,N-dimethylpyridine-3-carboxamide] | 96 | 3 | 45 | 65 | – | –
11 | CN(C)C(=O)c1ccc(N2CCC(CC3CCN(C(=O)[C@](O)(c4cccc(OC(F)F)c4)C(F)(F)F)CC3)CC2)cc1Cl [Example 2-116, 2-chloro-4-{4-[(1-{(2R)-2-[3-(difluoro-methoxy)phenyl]-3,3,3-trifluoro-2-hydroxy-propanoyl}piperidin-4-yl)methyl]piperidin-1-yl}-N,N-dimethyl-benzamide] | 58 | 7 | 20 | 227 | – | –
12 | CN(C)C(=O)c1ccc(N2CCC(CC3CCN(C(=O)C(O)(c4cccc5ccccc45)C(F)(F)F)CC3)CC2)cc1Cl (centres unmarked) [Example 2-168, 2-chloro-N,N-dimethyl-4-(4-{[1-(3,3,3-trifluoro-2-hydroxy-2-naphthalen-1-ylpropanoyl)piperidin-4-yl]methyl}piperidin-1-yl)benzamide] | 21 | 58 | 0 | – | NO IP | –
13 | CNC(=O)c1ccc(N2CCC(CC3CCN(C(=O)[C@](O)(c4cc(Cl)cc(Cl)c4)C(F)(F)F)CC3)CC2)cc1Cl [Example 7-116, 2-chloro-4-[4-({1-[(2R)-2-(3,5-dichlorophenyl)-3,3,3-trifluoro-2-hydroxypropanoyl]piperidin-4-yl}methyl)piperidin-1-yl]-N-methylbenzamide] | 76 | 13 | 9 | – | NO IP | –
14 | CN(C)C(=O)c1ccc(N2CCC(CC3CN(S(=O)(=O)c4ccccc4)C3)CC2)nc1Cl [Example 14-1, 2-chloro-N,N-dimethyl-6-(4-((1-(phenylsulfonyl)azetidin-3-yl)methyl)piperidin-1-yl)nicotinamide] | – | – | – | – | – | EC50 [1, 8]: 44 nM; Emax ([1]; read-out: LXR beta Activity @ max dose): 111%; EC50 [2, 9]: 3430 nM; Emax ([2]; read-out: LXR alpha Activity @ max dose): 55%
15 | CNC(=O)c1ccc(N2CCC(CC3CCN(C(=O)C(O)(c4cccc(Cl)c4)C(F)(F)F)CC3)CC2)cc1Cl (centres unmarked) [Example 7-37, 2-chloro-4-[4-({1-[2-(3-chlorophenyl)-3,3,3-trifluoro-2-hydroxypropanoyl]piperidin-4-yl}methyl)piperidin-1-yl]-N-methylbenzamide] | 90 | 16 | 27 | 340 | – | –
16 | CCOc1cccc([C@@](O)(C(=O)N2CCC(CC3CCN(c4ccc(C(N)=O)c(Cl)c4)CC3)CC2)C(F)(F)F)c1 [Example 12-8, 2-chloro-4-[4-({1-[(2R)-2-(3-ethoxyphenyl)-3,3,3-trifluoro-2-hydroxypropanoyl]-piperidin-4-yl}methyl)-piperidin-1-yl]-benzamide] | – | – | – | – | – | EC50 [1, 8]: 4 nM; Emax [1, 10]: 46%; LXR alpha IP (Inflection Point, potency) ([2]; co-activator recruitment to GST-LXRalpha LBD, TR-FRET): NO IP; Emax [2, 11]: 12%
17 | CNC(=O)c1ccc(N2CCC(CC3CCN(C(=O)[C@](O)(c4cccc(Br)c4)C(F)(F)F)CC3)CC2)nc1Cl [Example 7-146, 6-[4-({1-[(2R)-2-(3-bromophenyl)-3,3,3-trifluoro-2-hydroxypropanoyl]piperidin-4-yl}methyl)piperidin-1-yl]-2-chloro-N-methylpyridine-3-carboxamide] | 113 | 9 | 51 | 127 | – | –
18 | COc1cccc(S(=O)(=O)N2CC(CC3CCN(c4ccc(C(=O)N(C)C)c(Cl)c4)CC3)C2)c1 [Example 13-2, 2-chloro-4-[4-({1-[(3-methoxyphenyl)-sulfonyl]azetidin-3-yl}methyl)piperidin-1-yl]-N,N-dimethyl-benzamide] | – | – | – | – | – | EC50 [1, 8]: 96 nM; Emax [1, 10]: 70%; EC50 [2, 9]: 3390 nM; Emax [2, 11]: 26%
